According to PubChem BioAssay (NCI):
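Dose response: 5 concentrations. Exposure: 48 h. Format: 96-well plates. Endpoint: linear interpolation; highest concentration if not reached. GI50 is the concentration that inhibits growth by half. TGI: total growth inhibition.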

Assays:
Assay in all cases: NCI-60 cell line screen, 48 h
OVCAR-4 ovarian = system: OVCAR-4 ovarian
M14 melanoma = system: M14 melanoma
DU-145 prostate = system: DU-145 prostate
HS 578T breast = system: HS 578T breast
SF-268 CNS = system: SF-268 CNS
786-0 renal = system: 786-0 renal
K-562 leukemia = system: K-562 leukemia
OVCAR-5 ovarian = system: OVCAR-5 ovarian
NCI-H226 lung = system: NCI-H226 lung
KM20L2 colon = system: KM20L2 colon
RXF-631 renal = system: RXF-631 renal
DMS 114 small cell lung = system: DMS 114 small cell lung

Row | SMILES | TGI (OVCAR-4 ovarian) [µM] | TGI (M14 melanoma) [µM] | TGI (DU-145 prostate) [µM] | TGI (HS 578T breast) [µM] | TGI (SF-268 CNS) [µM] | TGI (786-0 renal) [µM] | TGI (K-562 leukemia) [µM] | TGI (OVCAR-5 ovarian) [µM] | TGI (NCI-H226 lung) [µM] | TGI (KM20L2 colon) [µM] | TGI (RXF-631 renal) [µM] | TGI (DMS 114 small cell lung) [µM] | GI50 (OVCAR-4 ovarian) [µM] | GI50 (M14 melanoma) [µM] | GI50 (DU-145 prostate) [µM] | GI50 (HS 578T breast) [µM] | GI50 (SF-268 CNS) [µM] | GI50 (K-562 leukemia) [µM] | GI50 (OVCAR-5 ovarian) [µM] | GI50 (NCI-H226 lung) [µM]
1 | CCN(CC)CCCC(C)Nc1ccnc2cc3ccccc3cc12 (stereo not given) | 7.92 | > 100 | > 100 | > 100 | 22.1 | > 100 | > 100 | > 100 | > 100 |  |  |  |  |  |  |  |  |  |  | 
2 | O=C(C[C@H](NC(=O)OCc1ccccc1)C(=O)NC1Cc2ccccc2OC1=O)OCc1ccccc1 (stereo not given in full) |  | > 100 | > 100 | > 100 |  |  | 49.2 | > 100 | > 100 |  |  |  |  |  |  |  |  |  |  | 
3 | Cc1ccc(NP(=O)(Oc2ccccc2)N(CCCl)CCCl)cc1 (stereo not given) | > 100 | > 100 |  |  | > 100 |  | > 100 | > 100 | > 100 | > 100 | > 100 | > 100 |  |  |  |  |  |  |  | 
4 | OC1(c2ccc(Cl)cc2)c2c(ccc3c2OCO3)C2=NCCN21 (stereo not given) | > 100 | 30.8 | > 100 | 76.7 | > 100 | > 100 | 70.6 | > 100 |  |  |  |  |  |  |  |  |  |  |  | 
5 | O=C(O)c1cc(=O)[nH]c(SCc2ccccc2)n1 | > 100 | > 100 | > 100 |  | > 100 | > 100 | > 100 | > 100 | > 100 |  |  |  |  |  |  |  |  |  |  | 
6 | CC(C)CCC[C@@H](C)[C@H]1CC[C@H]2[C@@H]3CC[C@H]4C[C@H](N)CC[C@]4(C)[C@H]3CC[C@]12C | 65.4 | 38.5 | 33.9 | 76.3 | > 100 | > 100 | > 100 | 36.7 | 49.2 |  |  |  |  |  |  |  |  |  |  | 
7 | COc1ccc(C2CC(c3cccc(Nc4ccncc4)c3)=NN2c2ccc(Cl)cc2)cc1 (stereo not given) | 3.06 | 3.24 | 3.17 | 3.68 | 3.43 |  | 4.37 | 3.68 | 7.73 |  |  |  | 1.58 | 1.61 | 1.74 | 1.77 | 1.72 | 1.6 | 1.76 | 2.27
8 | Cc1cccc2cc3c(ccc4ccccc43)c[n+]12 |  |  | > 100 | 24.6 | 14.2 | > 100 | > 100 | > 100 |  |  |  |  |  |  |  |  |  |  |  | 
9 | N#Cc1c(NC(=S)Nc2ccc(Cl)cc2)sc2c1CCCC2 | > 100 |  | > 100 |  | > 100 |  | > 100 | > 100 | > 100 |  |  |  |  |  |  |  |  |  |  | 
10 | CC(=O)Oc1c(C)c2c(O)c3c1C1=C(OCOC1=C(C)C3=O)/C(C)=C\C(C)(O)C(O)C(C)C(O)C1C(=O)OC(C(C)C1O)C(C)(O)/C=C/C=C(C)C(=O)N2 (stereo not given) |  | > 100 | > 100 | > 100 | > 100 | > 100 | > 100 | 88.5 | 75.7 |  |  |  |  |  |  |  |  |  |  | 
11 | CSc1nc(NC2OCC(OC(C)=O)C(OC(C)=O)C2OC(C)=O)c(N=C(C)C(C)=O)c(=O)[nH]1 (stereo not given) | > 100 | > 100 |  |  | > 100 |  | > 100 | > 100 |  |  |  | > 100 |  |  |  |  |  |  |  | 
12 | O=S1(=O)C(c2ccccc2)C(N2CCCCC2)C1C1CC2c3ccccc3C1c1ccccc12 (stereo not given) | > 100 | > 100 | > 100 | > 100 | > 100 | > 100 | > 100 | > 100 | > 100 |  |  |  |  |  |  |  |  |  |  | 
